# Measurements published in patent US8476289B2, “Aza-bicyclohexyl substituted indolyl alkyl amino derivatives as novel inhibitors of histone deacetylace” (Janssen Pharmaceutica NV, priority 2008, dated 2013).
# Counter-ions that a name gives are not always drawn.
# How the values were obtained:
# HCT116 cells = experiment: Antiproliferative activity on HCT116 cells (Alamar Blue assay, example C.2); assay type: cell-based; settings: HCT-116, 96 h, Human colon carcinoma HCT116 cells, 4-day incubation, read-out: Cellular activity pIC50 C.2 (converted)
# Protocol: Cellular activity of the compounds of formula (I) was determined on HCT116 tumour cells using a colorimetric assay for cell toxicity or survival (Mosmann Tim, Journal of Immunological Methods 65: 55-63, 1983) (see example C.2).
# Human colon carcinoma HCT116 cells obtained from the ATCC were cultured in McCoy's 5A medium supplemented with 2 mM L-Glutamine, 50 μg/ml gentamicin and 10% heat inactivated fetal calf serum.
# Reagents Used in the Alamar Blue Assay
# Resazurin was purchased from Aldrich (Prod. No. 199303). Potassium ferrocyanide, potassium ferricyanide, KH2PO4 and K2HPO4 were purchased from Sigma (Prod. Nos. P9387, P8131, P5655 and P8281, respectively).
# Potassium Phosphate Buffer 0.1 M (PPB) was made as follows: 2.72 gram KH2PO4 and 13.86 gram K2HPO4 were dissolved in 500 ml milli-Q H2O, the pH was adjusted to pH 7.4 and the volume was brought to 1 liter with milli-Q H2O; the buffer was filter sterilised and stored at room temperature. Resazurin stock solution (PPB-A) was prepared fresh by dissolving 45 mg resazurin in 15 ml PBS. 30 mM potassium ferricyanide (PPB-B) was prepared by dissolving 0.987 gram potassium ferricyanide in 100 ml PPB. 30 mM potassium ferrocyanide (PPB-C) was prepared by dissolving 1.266 gram potassium ferrocyanide in 100 ml PPB.
# Mixture of PPB-A, PPB-B and PPB-C was prepared by mixing equal volumes of the respective solutions. Resazurin work solution (herein termed “Alamar Blue” solution) was prepared by diluting said mixture 20× (vol/vol) in PPB and filter sterilising; the Alamar Blue solution could be kept at 4° C. for a maximum of 2 weeks.
# Procedure of the Alamar Blue Assay
# For experiments in 384 wells plates the cells were seeded at a density of 4.5×10^3 cells/ml in Falcon 384-well culture plates (Life Technologies, Merelbeke, Belgium), black with clear bottom, in 45 μl culture medium. Cells were allowed to adhere to plastic for 24 hr. The tested compound was pre-diluted (1/50 in culture medium) and 5 μl pre-diluted compound was added to the wells. Following 4-day incubation, 10 μl of the Alamar Blue solution was added to each well and the cells were further incubated for 4 hrs (HCT116) or 24 hrs (PC-3) at 37° C. The fluorescence intensity was measured for each well on a Fluorescence plate reader (Fluorskan, Labsystems, 540 nm excitation and 590 nm emission)
# The antiproliferative activity was calculated as percentage of remaining viable cells in treated versus control (untreated cells) conditions. Within an experiment, the result for each experimental condition is the mean of 3 replicate wells. When appropriate, the experiments were repeated to establish full concentration-response curves. When appropriate, IC50-values (concentration of the drug, needed to reduce cell growth to 50% of the control) were computed using probit analysis for graded data (Finney, D. J., Probit Analyses, 2nd Ed. Chapter 10, Graded Responses, Cambridge University Press, Cambridge 1962). Herein the effects of test compounds are expressed as pIC50 (the negative log value of the IC50-value) (see Table F-2).
# [1] = target: histone deacetylase (HeLa nuclear extracts); experiment: In vitro assay for inhibition of histone deacetylase (example C.1.c, HeLa nuclear extracts); assay type: biochemical; settings: HeLa nuclear extract, 45 min at 37° C.; work performed by Reaction Biology Corp.
# Protocol: The in vitro assay for inhibition of histone deacetylase (see example C.1) measures the inhibition of HDAC enzymatic activity obtained with the compounds of formula (I).
# HeLa nuclear extracts (prepared by high salt extraction of HeLa nuclei, J. D. Dignam et al., S. M. Abmayr et al) were incubated with 9 mg/ml in 0.1M KCl, 20 mM HEPES/NaOH, pH 7.9, 20% (v/v) glycerol, 0.2 mM EDTA, 0.5 mM DTT, 0.5 mM PMSF of enzyme. After 45 min, at 37° C. the deacetylation reaction was terminated. The developer reaction (also at 37° C.) was read in a time dependent manner for an hour. For each experiment, controls (containing HeLa nuclear extract and DMSO without compound) and samples (containing compound dissolved in DMSO and HeLa nuclear extract) were run in parallel. The compounds were tested at concentrations between 10^−5M and 10^−12M. The control sample represented 100% of substrate deactylation. For each sample the activity was expressed as a percentage of the mean value of the controls. Appropriate IC50-values (concentration of the drug, needed to reduce the amount of metabolites to 50% of the control) were computed using the Prism program. Herein the effects of test compounds are expressed as pIC50 (the negative log value of the IC50-value) (see Table F-2). Work was performed by Reaction Biology Corp. (Malvern, Pa., USA).
Compound,melting point,IC50 (HCT116 cells),Enzymatic activity pIC50 C.1.c. [1]
Cn1cc(CNCC2C3CN(c4ncc(C(=O)NO)cn4)CC23)c2ccccc21 (centres unmarked) (as salt: trifluoroacetate) [Compound 1],150 °C,–,–
Cn1cc(CNC2C3CN(c4ncc(C(=O)NO)cn4)CC32)c2ccccc21 (centres unmarked) [Compound 2],–,661 nM,8.62
Cn1cc(CNCC2C3CN(c4ncc(C(=O)NO)cn4)CC23)c2cc(C#N)ccc21 (centres unmarked) [Compound 5],–,398 nM,–
CCCn1cc(CNCC2C3CN(c4ncc(C(=O)NO)cn4)CC23)c2cc(F)ccc21 (centres unmarked) [Compound 7],–,25.7 nM,–

# Now from value to molecule:
melting point,IC50 (HCT116 cells),Enzymatic activity pIC50 C.1.c. [1],Compound
157 °C,–,–,Cn1cc(CNC2C3CN(c4ncc(C(=O)NO)cn4)CC32)c2ccccc21 (centres unmarked) (as salt: trifluoroacetate) [Compound 2]
–,89.1 nM,8.39,Cn1cc(CNCC2C3CN(c4ncc(C(=O)NO)cn4)CC23)c2ccccc21 (centres unmarked) [Compound 1]
–,75.9 nM,–,Cn1cc(CNCC2C3CN(c4ncc(C(=O)NO)cn4)CC23)c2cc(Cl)ccc21 (centres unmarked) [Compound 3]
–,81.3 nM,–,Cn1cc(CNCC2C3CN(c4ncc(C(=O)NO)cn4)CC23)c2cc(F)ccc21 (centres unmarked) [Compound 4]
–,35.5 nM,–,CCCn1cc(CNCC2C3CN(c4ncc(C(=O)NO)cn4)CC23)c2cc(Cl)ccc21 (centres unmarked) [Compound 6]
